According to PubChem BioAssay AID1919015 (Molecular Pharmacology Branch, DTP, NCI, 2023):
pIC50: −log10 of the molar value.

Tested on: OVCAR-5 complex spheroids with HUVEC/MSC, viability, % test/control
Assay: Anticancer human tumor OVCAR-5 cell line growth inhibition [AhR];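 also: spheroids exposed to compounds for 7 days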;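 as to viability, T/C: 100% = DMSO vehicle control wells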
Conditions: for pIC50: curve of first compound; for viability, T/C: stronger effect = lower value
Source text: Multicellular complex tumor spheroid response to aryl hydrocarbon receptor antagonists in combination with a variety of drugs and investigational agents in selected tumor cell lines
The current study was undertaken to assess response to aryl hydrocarbon receptor antagonists in combination with standard-of-care drugs and investigational agents in solid tumor complex spheroid models. Complex spheroids include a stromal component modeled by human endothelial cells (HUVEC) and fibroblasts modeled by human mesenchymal stem cells (MSCs). The concentration ranges selected for each drug and investigational agent were based upon clinically achievable concentrations if the clinical Cmax of the agent was known.
Compounds. The drugs and investigational agents: BAY 2416964 (NSC825713), GNF351 (NSC835774), CH-223191 (NSC835775), CPI-455 (NSC825282), aza-TdCyd (NSC777586), decitabine (NSC127716), belinostat (NSC758774), entinostat (NSC756642), pevonedistat (NSC761192), tazemetostat (NSC777109), talazoparib (NSC765396), olaparib (NSC753686), selinexor (NSC780203), nedisertib (M3814, NSC802822), bortezomib (NSC756655), venetoclax (NSC766270), doxorubicin (NSC123127), elimusertib (BAY189344, NSC800525), ceralasertib (AZD6738, NSC777638), TAK-243 (NSC785004), alisertib (NSC759677), etoposide (NSC141540), topotecan (NSC609699), eribulin (NSC707389), gemcitabine (NSC613327), carboplatin (NSC241240), cisplatin (NSC119875), and SN-38 (NSC673596) were obtained from the National Cancer Institute (NCI) Developmental Therapeutics Program Chemical Repository (32). The FDA-approved anticancer drug set is available from the Developmental Therapeutics Program at https://dtp.cancer.gov/organization/dscb/obtaining/available plates.htm. […] The stock solutions were prepared in dimethyl sulfoxide (DMSO, Sigma-Aldrich, St. Louis, MO, cat. D2650), except for the platinum compounds which were prepared in saline (Quality Biological, Gaithersburg, MD, cat. 114-055-101), at 800-fold the tested concentration and stored at -70 degrees C prior to their use. All drugs and investigational agents were tested over a range starting from a high concentration at or near the clinical Cmax and decreasing in half-log increments. If the clinical Cmax for an agent had not been determined, the highest concentration tested was 10 microM (Table 1).
Cell Culture. All cells were maintained in an incubator at 37 degrees C and 5% CO2 with 95% humidity. The PDC lines were cultured according to standard operating procedures established by the NCI PDMR (https://pdmr.cancer.gov). Briefly, all PDCs were thawed and cultured in Matrigel-coated flasks prepared with a working solution of 1X Ham's F-12 nutrient mix, without supplementation (Invitrogen, Waltham, MA, cat. 11765054), 100 U/mL penicillin-streptomycin (Invitrogen, cat. 15140122), and 2.5% Matrigel (Corning Inc., Corning, NY, cat. 354248) for the first three passages. All PDCs were cultured in complete DMEM/F-12 media containing advanced DMEM/F-12 (Invitrogen, cat. 12634028), 4.9% defined fetal bovine serum, heat inactivated (HyClone Laboratories Inc., Logan, UT, cat. SH30070.03HI), 389 ng/mL hydrocortisone (Sigma-Aldrich, cat. H4001), 9.7 ng/mL human EGF recombinant protein (Invitrogen, cat. PHG0313), 23.4 microg/mL adenine (Sigma-Aldrich, cat. A2786), 97.3 U/mL penicillin-streptomycin (Invitrogen, cat. 15140122), 1.9 mM L-glutamine (Invitrogen, cat. 25030081), and 9.7 microM Y-27632 dihydrochloride (Tocris Bioscience, Bristol, United Kingdom, cat. 1254). The PDCs were cultured in complete DMEM/F12 media without 10 microM Y-27632 dihydrochloride for at least two passages prior to the screen. The established cell lines NCI-H1341 and […] were cultured in DMEM/F-12, HEPES (Invitrogen, cat. 11330032), 5% defined fetal bovine serum (HyClone Laboratories Inc., cat. SH30070.03), ITS premix universal culture supplement [insulin (5 microg/mL), transferrin (5 microg/mL), and selenious acid (5 ng/mL)] […]

[1] = second compound 0.1 µM, first compound 0.0316 µM
[2] = second compound 0.1 µM, first compound 0.1 µM
[3] = second compound 0.316 µM, first compound 0.0316 µM
[4] = second compound 0.316 µM, first compound 0.1 µM
[5] = second compound 1 µM, first compound 0.0316 µM
[6] = second compound 1 µM, first compound 0.1 µM
[7] = second compound 3.16 µM, first compound 0.0316 µM
[8] = second compound 3.16 µM, first compound 0.1 µM
[9] = second compound 10 µM, first compound 0.0316 µM
[10] = second compound 10 µM, first compound 0.1 µM
[11] = second compound 0.1 µM, first compound 0.316 µM
[12] = second compound 0.1 µM, first compound 1 µM
[13] = second compound 0.1 µM, first compound 3.16 µM
[14] = second compound 0.1 µM, first compound 10 µM
[15] = second compound 0.316 µM, first compound 0.316 µM
[16] = second compound 0.316 µM, first compound 1 µM
[17] = second compound 0.316 µM, first compound 3.16 µM
[18] = second compound 0.316 µM, first compound 10 µM
[19] = second compound 1 µM, first compound 0.316 µM
[20] = second compound 1 µM, first compound 1 µM
[21] = second compound 1 µM, first compound 3.16 µM
[22] = second compound 1 µM, first compound 10 µM
[23] = second compound 3.16 µM, first compound 0.316 µM
[24] = second compound 3.16 µM, first compound 1 µM
[25] = second compound 3.16 µM, first compound 3.16 µM
[26] = second compound 3.16 µM, first compound 10 µM
[27] = second compound 10 µM, first compound 0.316 µM
[28] = second compound 10 µM, first compound 1 µM
[29] = second compound 10 µM, first compound 3.16 µM
[30] = second compound 10 µM, first compound 10 µM

SMILES | pIC50 (second compound 0.1 µM) | pIC50 (second compound 0.316 µM) | pIC50 (second compound 1 µM) | pIC50 (second compound 3.16 µM) | pIC50 (second compound 10 µM) | viability, T/C [1] [%] | viability, T/C [2] [%] | viability, T/C [3] [%] | viability, T/C [4] [%] | viability, T/C [5] [%] | viability, T/C [6] [%] | viability, T/C [7] [%] | viability, T/C [8] [%] | viability, T/C [9] [%] | viability, T/C [10] [%] | viability, T/C [11] [%] | viability, T/C [12] [%] | viability, T/C [13] [%] | viability, T/C [14] [%] | viability, T/C [15] [%] | further results
CC[C@@]1(O)C(=O)OCc2c1cc1n(c2=O)Cc2cc3c(CN(C)C)c(O)ccc3nc2-1 + Cc1cncc(-c2nc(NCCc3c[nH]c4ccccc34)c3ncn(C(C)C)c3n2)c1 | < 7.00 | < 7.00 | < 7.00 | 7.60 | > 9.50 | 49.3 | 52.3 | 50 | 52.8 | 48.4 | 55.8 | 43.4 | 50.5 | 6.78 | 14.5 |  |  |  |  |  | viability, T/C (second compound 0.1 µM, first compound 0.000316 µM): 100%; viability, T/C (second compound 0.1 µM, first compound 0.001 µM): 105%; viability, T/C (second compound 0.1 µM, first compound 0.00316 µM): 97.4%; viability, T/C (second compound 0.1 µM, first compound 0.01 µM): 87%; viability, T/C (second compound 0.316 µM, first compound 0.000316 µM): 97.9%; viability, T/C (second compound 0.316 µM, first compound 0.001 µM): 100%; viability, T/C (second compound 0.316 µM, first compound 0.00316 µM): 92.7%; viability, T/C (second compound 0.316 µM, first compound 0.01 µM): 82.2%; viability, T/C (second compound 1 µM, first compound 0.000316 µM): 93.6%; viability, T/C (second compound 1 µM, first compound 0.001 µM): 91.6%; viability, T/C (second compound 1 µM, first compound 0.00316 µM): 90.1%; viability, T/C (second compound 1 µM, first compound 0.01 µM): 79.9%; viability, T/C (second compound 3.16 µM, first compound 0.000316 µM): 79.2%; viability, T/C (second compound 3.16 µM, first compound 0.001 µM): 79.5%; viability, T/C (second compound 3.16 µM, first compound 0.00316 µM): 77.2%; viability, T/C (second compound 3.16 µM, first compound 0.01 µM): 62.9%; viability, T/C (second compound 10 µM, first compound 0.000316 µM): 22.3%; viability, T/C (second compound 10 µM, first compound 0.001 µM): 24.9%; viability, T/C (second compound 10 µM, first compound 0.00316 µM): 26.9%; viability, T/C (second compound 10 µM, first compound 0.01 µM): 16.5%
COc1cc(Nc2ncc3c(n2)-c2ccc(Cl)cc2C(c2c(F)cccc2OC)=NC3)ccc1C(=O)O + Cc1cncc(-c2nc(NCCc3c[nH]c4ccccc34)c3ncn(C(C)C)c3n2)c1 | 5.58 | 5.52 | 5.56 | 6.06 | > 7.50 | 88.1 | 83.6 | 87.3 | 80.9 | 85.5 | 79 | 69.8 | 68.6 | 9.88 | 9.9 | 63.6 | 58 | 49.2 | 45.6 | 63.3 | viability, T/C [16]: 59.9%; viability, T/C [17]: 50.2%; viability, T/C [18]: 42.5%; viability, T/C [19]: 60.5%; viability, T/C [20]: 59.5%; viability, T/C [21]: 48.3%; viability, T/C [22]: 44.1%; viability, T/C [23]: 56.7%; viability, T/C [24]: 49.8%; viability, T/C [25]: 46.9%; viability, T/C [26]: 44%; viability, T/C [27]: 8.88%; viability, T/C [28]: 9.21%; viability, T/C [29]: 8.92%; viability, T/C [30]: 12.2%
Nc1ccn(C2OC(CO)C(O)C2(F)F)c(=O)n1 (stereo not given) + CC(CO)NC(=O)c1cc(-c2ccc(Cl)cc2)nn(-c2cnn(C)c2)c1=O | > 7.50 | > 7.50 | > 7.50 | > 7.50 | > 7.50 | 34.6 | 32.1 | 32.9 | 29.8 | 36.1 | 32.4 | 37 | 32.3 | 39.6 | 33.9 | 28.1 | 29.9 | 30.9 | 29.4 | 28.9 | viability, T/C [16]: 28.5%; viability, T/C [17]: 31.5%; viability, T/C [18]: 30.2%; viability, T/C [19]: 29.6%; viability, T/C [20]: 30.4%; viability, T/C [21]: 31.3%; viability, T/C [22]: 30.1%; viability, T/C [23]: 29.6%; viability, T/C [24]: 28.9%; viability, T/C [25]: 28.7%; viability, T/C [26]: 29.6%; viability, T/C [27]: 30.9%; viability, T/C [28]: 31.2%; viability, T/C [29]: 32.8%; viability, T/C [30]: 33.8%
